Assays:
Test in all cases: CDKi biochemical assay (TR-FRET, phosphorylation of S780 on RB1 peptide)
CDK4/cyclinD1 = CDK4/cyclinD1 (Homo sapiens, UniProt P11802); settings: CDK4/cyclinD1 20 pM, 1 mM ATP, 60 min at 25° C.
Method in brief: (§1)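 Avi-tagged, biotinylated CDK4/cyclinD1 (20 pM) or CDK6/cyclinD3 (10 pM) phosphorylates 200 nM His-MBP-RB1[773-924] at S780 with 1 mM ATP in HEPES pH 7.5/MgCl2, 60 min, 25° C. After EDTA quench, Eu anti-pRB(S780)/SA-APC TR-FRET is read after 3 h. Apparent IC50 comes from % activity versus log concentration.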

CDK6/cyclinD3 = CDK6/cyclinD3 (Homo sapiens, UniProt Q00534); settings: CDK6/cyclinD3 10 pM, 1 mM ATP, 60 min at 25° C.
Method in brief: as §1

CDK2/CyclinE1 = CDK2/CyclinE1 (Homo sapiens, UniProt P24941); settings: CDK2/CyclinE1 100 pM, 1 mM ATP, 60 min at 25° C.
Method in brief: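 CDK2/CyclinE1 (Avi-tag, 100 pM; CDK2 E. coli-expressed) phosphorylated His-MBP-RB1[773-924] (200 nM) at S780 with 1 mM ATP in HEPES pH 7.5/MgCl2/DTT, 60 min at 25° C. After EDTA quench, TR-FRET detection ran 3 h (Eu anti-p-RB S780, SA-APC). Apparent IC50 came from percent activity versus log concentration.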

CDK1/CyclinB1 = CDK1/CyclinB1 (Homo sapiens, UniProt P06493); settings: CDK1/CyclinB1 10 pM, 1 mM ATP, 60 min at 25° C.
Method in brief: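 CDK1/CyclinB1 (10 pM, Avi-tagged, insect-cell expressed) phosphorylated S780 of His-MBP-RB1[773-924] (200 nM) with 1 mM ATP in HEPES pH 7.5, 10 mM MgCl2, 1 mM DTT, 60 min at 25 °C. After EDTA quench, TR-FRET detection (Eu anti-pRB S780, SA-APC) for 3 h; apparent IC50 from percent activity versus log concentration.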

Structure (SMILES) | IC50 (CDK4/cyclinD1) | IC50 (CDK6/cyclinD3) | IC50 (CDK2/CyclinE1) | IC50 (CDK1/CyclinB1)
CC(=O)N1CC2(CC(COc3n[nH]cc3Nc3ncc4c(n3)N([C@@H]3CCC[C@@H](O)C3)C(=O)C43CC3)C2)C1 [Example 53, 2′-((3-((2-acetyl-2-azaspiro[3.3]heptan-6-yl)methoxy)-1H-pyrazol-4-yl)amino)-7′-((1R,3R)-3-hydroxycyclohexyl)spiro[cyclopropane-1,5′-pyrrolo[2,3-d]pyrimidin]-6′(7′H)-one] | ≥ 10 µM | ≥ 10 µM | 0.186 µM | ≥ 10 µM
O=C1N([C@@H]2CCC[C@@H](O)C2)c2nc(Nc3c[nH]nc3OCC3CC4(COC4)C3)ncc2C12CC2 [Example 54, 2′-((3-((2-oxaspiro[3.3]heptan-6-yl)methoxy)-1H-pyrazol-4-yl)amino)-7′-((1R,3R)-3-hydroxycyclohexyl)spiro[cyclopropane-1,5′-pyrrolo[2,3-d]pyrimidin]-6′(7′H)-one] | ≥ 10 µM | ≥ 10 µM | 0.134 µM | ≥ 10 µM
CC#Cc1n[nH]cc1Nc1ncc2c(n1)N([C@@H]1CCC[C@@H](O)C1)C(=O)C21CC1 [Example 58, 7′-((1R,3R)-3-hydroxycyclohexyl)-2′-((3-(prop-1-yn-1-yl)-1H-pyrazol-4-yl)amino)spiro[cyclopropane-1,5′-pyrrolo[2,3-d]pyrimidin]-6′(7′H)-one] | 9.5 µM | ≥ 10 µM | 0.016 µM | 3.54 µM
O=C1N([C@@H]2CCC[C@@H](O)C2)c2nc(Nc3c[nH]nc3-c3ccncc3)ncc2C12CC2 [Example 59, 7′-((1R,3R)-3-hydroxycyclohexyl)-2′-((3-(pyridin-4-yl)-1H-pyrazol-4-yl)amino)spiro[cyclopropane-1,5′-pyrrolo[2,3-d]pyrimidin]-6′(7′H)-one] | ≥ 10 µM | ≥ 10 µM | 0.251 µM | ≥ 10 µM
O=C1N([C@@H]2CCC[C@@H](O)C2)c2nc(Nc3c[nH]nc3-c3ccccn3)ncc2C12CC2 [Example 60, 7′-((1R,3R)-3-hydroxycyclohexyl)-2′-((3-(pyridin-2-yl)-1H-pyrazol-4-yl)amino)spiro[cyclopropane-1,5′-pyrrolo[2,3-d]pyrimidin]-6′(7′H)-one] | ≥ 10 µM | ≥ 10 µM | 0.162 µM | ≥ 10 µM
O=C1N([C@@H]2CCC[C@@H](O)C2)c2nc(Nc3c[nH]nc3O[C@@H]3CCOC3)ncc2C12CC2 [Example 63, 7′-((1R,3R)-3-hydroxycyclohexyl)-2′-((3-(((R)-tetrahydrofuran-3-yl)oxy)-1H-pyrazol-4-yl)amino)spiro[cyclopropane-1,5′-pyrrolo[2,3-d]pyrimidin]-6′(7′H)-one] | ≥ 10 µM | ≥ 10 µM | 0.043 µM | 3.69 µM
O=C1N([C@@H]2CCC[C@@H](O)C2)c2nc(Nc3c[nH]nc3OC[C@H]3COCCO3)ncc2C12CC2 [Example 66, 2′-((3-(((R)-1,4-dioxan-2-yl)methoxy)-1H-pyrazol-4-yl)amino)-7′-((1R,3R)-3-hydroxycyclohexyl)spiro[cyclopropane-1,5′-pyrrolo[2,3-d]pyrimidin]-6′(7′H)-one] | ≥ 10 µM | ≥ 10 µM | 0.051 µM | 4.22 µM

These reach a lower IC50 (CDK4/cyclinD1). Values come first.

IC50 (CDK4/cyclinD1) | IC50 (CDK6/cyclinD3) | IC50 (CDK2/CyclinE1) | IC50 (CDK1/CyclinB1) | Structure (SMILES)
8.5 µM | ≥ 10 µM | 0.011 µM | 1.43 µM | O=C1N([C@@H]2CCC[C@@H](O)C2)c2nc(Nc3c[nH]nc3OC3CC3)ncc2C12CC2 [Example 55]
3.13 µM | 6.28 µM | 0.01 µM | 0.8 µM | O=C1N([C@@H]2CCC[C@@H](O)C2)c2nc(Nc3c[nH]nc3OCC(F)(F)F)ncc2C12CC2 [Example 56, 7′-((1R,3R)-3-hydroxycyclohexyl)-2′-((3-(2,2,2-trifluoroethoxy)-1H-pyrazol-4-yl)amino)spiro[cyclopropane-1,5′-pyrrolo[2,3-d]pyrimidin]-6′(7′H)-one]
7.9 µM | ≥ 10 µM | 0.015 µM | 2.04 µM | Cn1ncc(-c2n[nH]cc2Nc2ncc3c(n2)N([C@@H]2CCC[C@@H](O)C2)C(=O)C32CC2)c1Cl [Example 57, 2′-((5′-chloro-1′-methyl-1H,1′H-[3,4′-bipyrazol]-4-yl)amino)-7-((1R,3R)-3-hydroxycyclohexyl)spiro[cyclopropane-1,5′-pyrrolo[2,3-d]pyrimidin]-6′(7′H)-one]
8.65 µM | 9.19 µM | 0.046 µM | ≥ 10 µM | O=C1N([C@@H]2CCC[C@@H](O)C2)c2nc(Nc3c[nH]nc3-c3cccnc3)ncc2C12CC2 [Example 61, 7′-((1R,3R)-3-hydroxycyclohexyl)-2′-((3-(pyridin-3-yl)-1H-pyrazol-4-yl)amino)spiro[cyclopropane-1,5′-pyrrolo[2,3-d]pyrimidin]-6′(7′H)-one]
2.3 µM | 1.83 µM | 0.017 µM | 4.23 µM | Cc1c(-c2n[nH]cc2Nc2ncc3c(n2)N([C@@H]2CCC[C@@H](O)C2)C(=O)C32CC2)cnn1C(F)F [Example 62]
4.7 µM | 6.49 µM | 0.012 µM | 2.19 µM | O=C1N([C@@H]2CCC[C@@H](O)C2)c2nc(Nc3c[nH]nc3-c3cnn4ccncc34)ncc2C12CC2 [Example 64, 7′-((1R,3R)-3-hydroxycyclohexyl)-2′-((3-(pyrazolo[1,5-a]pyrazin-3-yl)-1H-pyrazol-4-yl)amino)spiro[cyclopropane-1,5′-pyrrolo[2,3-d]pyrimidin]-6′(7′H)-one]
6.9 µM | ≥ 10 µM | 0.053 µM | 4.49 µM | C[C@]1(O)C[C@H](COc2n[nH]cc2Nc2ncc3c(n2)N([C@@H]2CCC[C@@H](O)C2)C(=O)C32CC2)C1 [Example 65, 2′-((3-(((1r,3R)-3-hydroxy-3-methylcyclobutyl)methoxy)-1H-pyrazol-4-yl)amino)-7′-((1R,3R)-3-hydroxycyclohexyl)spiro[cyclopropane-1,5′-pyrrolo[2,3-d]pyrimidin]-6′(7′H)-one]
6.91 µM | ≥ 10 µM | 0.023 µM | 4.13 µM | N#CC1(COc2n[nH]cc2Nc2ncc3c(n2)N([C@@H]2CCC[C@@H](O)C2)C(=O)C32CC2)CC1 [Example 67, 1-(((4-((7′-((1R,3R)-3-hydroxycyclohexyl)-6′-oxo-6′,7′-dihydrospiro[cyclopropane-1,5′-pyrrolo[2,3-d]pyrimidin]-2′-yl)amino)-1H-pyrazol-3-yl)oxy)methyl)cyclopropane-1-carbonitrile]
4.15 µM | 7.6 µM | 0.007 µM | 0.97 µM | CSCc1n[nH]cc1Nc1ncc2c(n1)N([C@@H]1CCC[C@@H](O)C1)C(=O)C21CC1 [Example 68, 7′-((1R,3R)-3-hydroxycyclohexyl)-2′-((3-((methylthio)methyl)-1H-pyrazol-4-yl)amino)spiro[cyclopropane-1,5′-pyrrolo[2,3-d]pyrimidin]-6′(7′H)-one]
2.61 µM | 6.03 µM | 0.006 µM | 0.8 µM | O=C1N([C@@H]2CCC[C@@H](O)C2)c2nc(Nc3c[nH]nc3O[C@H]3CC3(F)F)ncc2C12CC2 [Example 69]

Reference: patent US20240360137A1 (Novartis AG, priority 2023, published 2024)
